Reference: patent US9169241B2, “Quinolinyloxyphenylsulfonamides” (Max-Planck-Gesellschaft Zur Forderung der Wissenschaften …, priority 2009, dated 2015)
Read-outs that look alike come from different tables or passages of the source.

What was measured:
indicated cell line = test: Wound healing migration assay (Table IV); type: cell-based; conditions: compounds at 12.5, 6.25, 3.125 μM, 48 h-72 h
Summary of the method: (§1)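 Compound exposure at 12.5, 6.25 and 3.125 μM, with DMSO control, on scratch-wounded monolayers (150000 cells/24 well, overnight). Wound closure imaged by microscopy, fixed with crystal violet after 48 h or 72 h depending on cell line; IC50 is the concentration giving 50% wound size between t0 and t48/t72.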

Hs578T [1] = test: Matrigel outgrowth assay/branching assay; type: cell-based; conditions: Homo sapiens, Hs-578T; HS578T cell line; Table Ib; read-out: Total branching inhibition in Matrigel HS578T
Summary of the method: (§2)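 Matrigel 3 mg/ml, polymerized 1 h 37° C; 5000 cells/well + cmpd 3.125/1.56/0.78 μM or DMSO. Imaged 48/72/96 h, 5× objective. Positive = total branching block.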

tumor cell = test: Matrigel outgrowth assay/branching assay (Table Va); type: cell-based
Summary of the method: as §2

U118 = test: Cell vitality assay (ATP assay, CellTiter-Glo); type: cell-based; conditions: U118, 72 h; Table IIa; read-out: IC50 ATP-Assay after 72 h U118
Summary of the method: (§3)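 ATP-based luminescence (CellTiter-Glo) after 72 h exposure of 1000 cells/well to seven compound concentrations from 0.195 to 12.5 μM. IC50 defined as concentration reducing ATP to 50% of DMSO control.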

Hs578T [2] = test: Cell vitality assay (ATP assay, CellTiter-Glo); type: cell-based; conditions: Homo sapiens, Hs-578T, 72 h
Summary of the method: as §3

SF126 = test: Cell vitality assay (ATP assay, CellTiter-Glo); type: cell-based; conditions: Homo sapiens, SF-126; SF126, 72 h; Table IIa; read-out: IC50 ATP-Assay after 72 h SF126
Summary of the method: as §3

Hs578T [3] = test: Wound healing migration assay; type: cell-based; conditions: Homo sapiens, Hs-578T; HS578T cell line; Table Ib
Summary of the method: as §1

[4] = Homo sapiens, C8161 cells, read-out: IC50 Wound healing Assay C8161
[5] = SF763 cells, read-out: IC50 Wound healing Assay SF763
[6] = Homo sapiens, C8161 cells, read-out: Total branching inhibition in Matrigel C8161
[7] = Homo sapiens, Hs-578T, Hs578T cells, read-out: Total branching inhibition in Matrigel Hs578T
[8] = U118 cells, read-out: Total branching inhibition in Matrigel U118
[9] = U138 cells, read-out: Total branching inhibition in Matrigel U138
[10] = Hs578T, Table IIa, read-out: IC50 ATP-Assay after 72 h Hs578T
[11] = HS578T cell line, Table Ib, read-out: IC50 ATP-Assay HS578T after 72 h

Row | SMILES | IC50 (indicated cell line; [4]) | IC50 (indicated cell line; [5]) | IC50 (Hs578T [1]) | IC50 (tumor cell; [6]) | IC50 (tumor cell; [7]) | IC50 (tumor cell; [8]) | IC50 (tumor cell; [9]) | melting point | IC50 (U118) | IC50 (Hs578T [2]; [10]) | IC50 (SF126) | IC50 (Hs578T [3]) | IC50 (Hs578T [2]; [11])
1 | COc1cc2c(Oc3ccc(NS(=O)(=O)c4ccccc4OC(F)(F)F)cc3F)ccnc2cc1OCCCN1CCN(C)CC1 [Example 25, N-(3-Fluoro-4-{6-methoxy-7-[3-(4-methyl-piperazin-1-yl)-propoxy]-quinolin-4-yloxy}-phenyl)-2-trifluoromethoxy-benzenesulfonamide] | 12.5 to 50 µM | 12.5 to 50 µM | ≤ 10 µM | ≤ 5 µM | ≤ 5 µM | ≤ 5 µM | 5 to 50 µM | 86 to 90 °C | ≤ 12.5 µM | ≤ 12.5 µM | ≤ 12.5 µM |  | 
2 | COc1cc2c(Oc3ccc(NS(=O)(=O)c4ccccc4Cl)cc3F)ccnc2cc1OCCCN1CCN(C)CC1 [Example 29, 2-Chloro-N-(3-fluoro-4-{6-methoxy-7-[3-(4-methyl-piperazin-1-yl)-propoxy]-quinolin-4-yloxy}-phenyl)-benzenesulfonamide] | ≤ 12.5 µM | ≤ 12.5 µM | ≤ 10 µM | ≤ 5 µM | ≤ 5 µM | ≤ 5 µM | 5 to 50 µM | 96 to 98 °C | ≤ 12.5 µM | 12.5 to 50 µM | ≤ 12.5 µM |  | 
3 | COc1cc2c(Oc3ccc(NS(=O)(=O)c4c(Cl)cccc4Cl)cc3F)ccnc2cc1OCCCN1CCN(C)CC1 [Example 32, 2,6-Dichloro-N-(3-fluoro-4-{6-methoxy-7-[3-(4-methyl-piperazin-1-yl)-propoxy]-quinolin-4-yloxy}-phenyl)-benzenesulfonamide] | ≤ 12.5 µM | ≤ 12.5 µM | ≤ 10 µM | ≤ 5 µM | ≤ 5 µM | ≤ 5 µM | 5 to 50 µM | 113 to 116 °C | ≤ 12.5 µM | ≤ 12.5 µM | ≤ 12.5 µM |  | 
4 | COc1cc2c(Oc3ccc(NS(=O)(=O)c4ccccc4OC)cc3F)ccnc2cc1OCCCN1CCN(C)CC1 [Example 33, N-(3-Fluoro-4-{6-methoxy-7-[3-(4-methyl-piperazin-1-yl)-propoxy]-quinolin-4-yloxy}-phenyl)-2-methoxy-benzenesulfonamide] | ≤ 12.5 µM | 12.5 to 50 µM | ≤ 10 µM | ≤ 5 µM | ≤ 5 µM | ≤ 5 µM | 5 to 50 µM | 168 to 170 °C | ≤ 12.5 µM | ≤ 12.5 µM | ≤ 12.5 µM |  | 
5 | COc1cc2c(Oc3ccc(NS(=O)(=O)c4cccc(C#N)c4)cc3F)ccnc2cc1OCCCN1CCCC(C)C1 (stereo not shown) [Example 41, 3-Cyano-N-(3-fluoro-4-{6-methoxy-7-[3-(3-methyl-piperidin-1-yl)-propoxy]-quinolin-4-yloxy}-phenyl)-benzenesulfonamide] | 12.5 to 50 µM | ≤ 12.5 µM | ≤ 10 µM | ≤ 5 µM | ≤ 5 µM | ≤ 5 µM | 5 to 50 µM | 125 to 127 °C | ≤ 12.5 µM | ≤ 12.5 µM | 12.5 to 50 µM |  | 
6 | COc1cc2c(Oc3ccc(NS(=O)(=O)c4cc(C)ccc4F)cc3F)ccnc2cc1OCCCN1CCCC(C)C1 (stereo not shown) [Example 55] | 12.5 to 50 µM | 12.5 to 50 µM | ≤ 10 µM | ≤ 5 µM | ≤ 5 µM | ≤ 5 µM | 5 to 50 µM | 149 to 151 °C | 12.5 to 50 µM | 12.5 to 50 µM | ≤ 12.5 µM | ≤ 12.5 µM | 12.5 to 50 µM
7 | COc1cc2c(Oc3ccc(NS(=O)(=O)c4ccc(C)c(F)c4)cc3F)ccnc2cc1OCCCN1CCCC(C)C1 (stereo not shown) [Example 56, 3-Fluoro-N-(3-fluoro-4-{6-methoxy-7-[3-(3-methyl-piperidin-1-yl)-propoxy]-quinolin-4-yloxy}-phenyl)-4-methyl-benzenesulfonamide] | ≤ 12.5 µM | 12.5 to 50 µM | 10 to 25 µM | ≤ 5 µM | 5 to 50 µM | ≤ 5 µM | 5 to 50 µM | 174 to 176 °C | 12.5 to 50 µM | 12.5 to 50 µM | ≤ 12.5 µM | ≤ 12.5 µM | 12.5 to 50 µM
8 | COc1cc2c(Oc3ccc(NS(=O)(=O)c4cccc(Oc5ccccc5)c4)cc3F)ccnc2cc1OCCCN1CCCC(C)C1 (stereo not shown) [Example 59, N-(3-Fluoro-4-{6-methoxy-7-[3-(3-methyl-piperidin-1-yl)-propoxy]-quinolin-4-yloxy}-phenyl)-3-phenoxy-benzenesulfonamide] | 12.5 to 50 µM | ≤ 12.5 µM | ≤ 10 µM | ≤ 5 µM | ≤ 5 µM | 5 to 50 µM | ≤ 5 µM | 146 to 147 °C | 12.5 to 50 µM | ≤ 12.5 µM | 12.5 to 50 µM | ≤ 12.5 µM | ≤ 12.5 µM
9 | COc1cc2c(Oc3ccc(NS(=O)(=O)c4cccc(C)c4)cc3F)ccnc2cc1OCCCN1CCCC(C)C1 (stereo not shown) [Example 70, N-(3-Fluoro-4-{6-methoxy-7-[3-(3-methyl-piperidin-1-yl)-propoxy]-quinolin-4-yloxy}-phenyl)-3-methyl-benzenesulfonamide] | 12.5 to 50 µM | ≤ 12.5 µM | ≤ 10 µM | ≤ 5 µM | ≤ 5 µM | ≤ 5 µM | ≤ 5 µM | 168 to 170 °C | ≤ 12.5 µM | 12.5 to 50 µM | ≤ 12.5 µM |  | 
10 | COc1cc2c(Oc3ccc(NS(=O)(=O)c4ccc(F)c(C#N)c4)cc3F)ccnc2cc1OCCCN1CCCC(C)C1 (stereo not shown) [Example 72, 3-Cyano-4-fluoro-N-(3-fluoro-4-{6-methoxy-7-[3-(3-methyl-piperidin-1-yl)-propoxy]-quinolin-4-yloxy}-phenyl)-benzenesulfonamide] | ≤ 12.5 µM | ≤ 12.5 µM | ≤ 10 µM | ≤ 5 µM | ≤ 5 µM | ≤ 5 µM | ≤ 5 µM | 125 to 127 °C | 12.5 to 50 µM | 12.5 to 50 µM | 12.5 to 50 µM |  | 
11 | COc1cc2c(Oc3ccc(NS(=O)(=O)c4ccccc4C(F)(F)F)cc3F)ccnc2cc1OCC(=O)N(C)C [Example 93, 2-{4-[2-Fluoro-4-(2-trifluoromethyl-benzenesulfonylamino)-phenoxy]-6-methoxy-quinolin-7-yloxy}-N,N-dimethyl-acetamide] | ≤ 12.5 µM | 12.5 to 50 µM | ≤ 10 µM | ≤ 5 µM | ≤ 5 µM | ≤ 5 µM | 5 to 50 µM | 134 to 135 °C | ≤ 12.5 µM | ≤ 12.5 µM | ≤ 12.5 µM |  | 
